Where “and” joins values, the source holds several entries; their conditions need not be identical. Equal values may be shown once.
Tests used:
Type in all cases: in vivo, mouse
male C57BL/6 mice [1] = assay: Hair-growth efficacy test in catagen inhibition animal model, visual inspection, Centipeda minima extracts (Example 2-1); conditions: Day 5 after 7 days of administration (+12 day); topical 100 μL twice a day; dexamethasone-induced catagen
Excerpt: (§1) To proceed with the hair-growth efficacy test in the catagen inhibition animal model of Centipeda minima extract, male C57BL/6 mice (5 weeks of age) were purchased and subjected to acclimation for 1 week and selected animals weighing 20 to 24 g. In the case of an animal in which skin damage occurred during hair removal, or if the skin color was black, the growth period was already in progress, so it was inappropriate for this experiment and was excluded from the experiment.
The test group was divided into a normal group, a negative control group, a test substance-administered group, and a positive control groups 1 and 2. The normal group had three mice, the negative control group had 4 mice, the test substance-administered group had 4 mice, and the positive control group 1 (Tofacitinib) had four mice, and the positive control group 2 (Minoxidil) had four mice. […]
Further, to quantify the results of hair-growth efficacy visual inspection, a black portion (anagen) or a region where hair-growth begins in the entire hair removal site (solvent or test substance, positive control substance application site) was visually observed. […]

male C57BL/6 mice [2] = assay: Hair-growth efficacy test in catagen inhibition animal model, visual inspection with image analysis (Example 1-1); conditions: values of individual mice
Excerpt: as §1, with “16” for “20”, “21” for “24”
The test group was divided into a normal group, a negative control group, a test substance-administered group, and a positive control groups 1 and 2. Each of the normal group and the negative control group had 1 mouse, the test substance-administered group had 3 mice, and the positive control group 1 had two mice, and the positive control group 2 had one mouse. […]
Further, in order to quantify the results of hair-growth efficacy visual inspection, image analysis was performed on the entire epilation site (solvent or test substance, positive control substance application site) that is black (anagen) or a site where hair-growth begins. […] The result was quantified in %. […]

male C57BL/6 mice [3] = assay: Skin tissue pathology test, H&E staining (Example 2-2); conditions: H&E stained skin tissue, day 12
Description: (§2) The skin tissue pathology test was conducted on day 12 by H&E staining using Hematoxylin and Eosin, which are widely used. A sample was collected from the skin tissue of the sacrificed animals and the generation of hair follicles and phenomena of hair-growth were identified through fixation, washing, clearing, paraffin infiltration, embedding, microtome cutting, staining and reading processes.

male C57BL/6 mice [4] = assay: Skin tissue pathology test, H&E staining (Example 1-2); conditions: H&E stained skin tissue after end of experiment
Description: as §2, with “conducted” for “conducted on day 12”, “generally used widely.” for “widely used.”
In this study, Anagen_Early (A/e) indicates the state in which hair has just begun to develop and Anagen_late (A/l) and Catagen_early (C/e) indicate that hair-growth is in full swing. Anagen_late and Catagen_early have histologically similar positions of the hair bulb. When considering morphological changes according to tissue sections, it is necessary to consider that it is often unclear to distinguish there between. Nevertheless, the hair follicles in the Anagen_late and Catagen_early stages are generally considered as similar stages of development, and the results are interpreted.

Compound | Hair-growth efficacy (%) (male C57BL/6 mice [1]) | hair-growth efficacy (image analysis of epilation site) (male C57BL/6 mice [2]; Day 17 after administration, 0.1% dexamethasone to maintain catagen) | tendency to migrate to anagen (black/hair-growth area of epilation site, image analysis) (male C57BL/6 mice [2]; on 3 days of administration, topical 100 μL twice a day, dexamethasone-induced catagen) | hair follicle generation and hair-growth efficacy (skin histology, FIG. 9) (male C57BL/6 mice [3]) | hair follicle generation and hair-growth efficacy (skin histology, FIG. 5) (male C57BL/6 mice [4])
6-amino-1,2-dihydro-1-hydroxy-2-imino-4-phenoxypyrimidine [Minoxidil] | 45% | 6.1% and 21.2% | 0.1% and 0.3% | only minimal hair follicle generation and hair-growth efficacy degree | only minimal hair follicle generation and hair-growth efficacy degree
C[C@@H]1CCN(C(=O)CC#N)C[C@@H]1N(C)c1ncnc2[nH]ccc12 [Tofacitinib] | 25% | – | – | only minimal hair follicle generation and hair-growth efficacy degree | –
